{
  "source": "patent US4277474A",
  "about": "“Treatment of allergic symptoms with propanone derivatives” (Nippon Zoki Pharmaceutical Co., Ltd., priority 1978, dated 1981)",
  "key": {"Peritoneal cavity cells": {"test_system": "Peritoneal cavity cells", "assay": "Inhibitory effect on histamine release from sensitized peritoneal cavity cells", "type": "cell-based, rat (Wistar-strain)", "parameters": "Released histamine, fluorescence intensity / Residual histamine, fluorescence intensity / Total histamine, fluorescence intensity: unit not given here", "details": "0.01 mM"}, "[1]": {"assay": "Acute toxicity in mice (LD50, Litchfield-Wilcoxon)", "details": "mouse, in vivo, ICR male mice", "procedure": "Acute toxicity tests were carried out by intraperitoneal or peroral administration of the compound according to the present invention to groups of 10 ICR-strain male mice (weighing 20 g on the average), and each LD50 value was determined by Litchfield-Wilcoxon Method."}, "homo PCA reaction": {"test_system": "homo PCA reaction", "assay": "Inhibitory effect on homo PCA reaction in rats", "type": "in vivo"}, "[2]": {"test_system": "Hartley-strain male guinea pig", "assay": "Experimental atopic asthma in passively sensitized guinea pigs", "type": "in vivo", "details": "50 mg/kg peroral", "procedure": "[Levine, B. B. et al., J. Immunol., 106, 29(1971)] was injected at a dosage of 0.25 ml/guinea pig into the hearts of groups of Hartley-strain male guinea pig (a group consisting of four), each weighing 250-300 g, to make them passively sensitive. […] The rate of breathing and the ratio of expiration time to inspiration time were calculated from the velocity of breathing. As an antigen to induce the reaction 200 μg/kg of benzylpenicilloyl bovine serum albumin [(BPO)23 -BSA] obtained by the method of Levine et al. [Levine et al.; J. Clin. Invest., 47, 556 (1968)] was injected through a cannula into the jugular vein."}, "SRS-A": {"test_system": "SRS-A", "assay": "Anti-SRS-A effect on guinea pig's ileum (Magnus method)", "procedure": "The anti-SRS-A effect of the compounds according to the present invention on guinea pig's ileum was measured by Magnus method. […] One minute thereafter, the ileum contraction inhibiting rate (%) was measured with use of 1 ml of 80% ethanol solution of SRS-A (150 mg/ml)."}},
  "data": [
    {"smiles": "Cc1ccc(C(=O)C(C)CN2CCCCC2)cc1C.Cl", "note": "(stereo not shown) [Example 5, 2,3',4'-trimethyl-3-piperidinopropiophenone hydrochloride]", "values": [
      {"measurement": "Histamine release rate", "setting": "Peritoneal cavity cells", "result": 42.9, "unit": "%"},
      {"measurement": "Released histamine, fluorescence intensity", "setting": "Peritoneal cavity cells", "result": 210},
      {"measurement": "Residual histamine, fluorescence intensity", "setting": "Peritoneal cavity cells", "result": 280},
      {"measurement": "Total histamine, fluorescence intensity", "setting": "Peritoneal cavity cells", "result": 490},
      {"measurement": "Net release rate", "setting": "Peritoneal cavity cells; release not caused by antigen-antibody reaction deducted", "result": 29.0, "unit": "%"},
      {"measurement": "inhibition at 10 µM", "setting": "Peritoneal cavity cells; Rattus norvegicus", "result": 11.3, "unit": "%"},
      {"measurement": "LD50", "setting": "[1]; ip, intraperitoneal", "result": 117, "unit": "mg/kg"},
      {"measurement": "LD50", "setting": "[1]; po, peroral", "result": 325, "unit": "mg/kg"},
      {"measurement": "inhibitory effect on homo PCA reaction, dose dependence (in words)", "setting": "homo PCA reaction", "result": "their effects depended on the dose"},
      {"measurement": "inhibition of homo PCA reaction", "setting": "homo PCA reaction; 200 mg/Kg peroral", "result": "about 70%"},
      {"measurement": "Expiration/inspiration", "setting": "[2]; 1 min, 1 h before induction", "result": "77.6 ± 3.68", "unit": "%"},
      {"measurement": "Rate of breathing", "setting": "[2]; 1 min, 1 h before induction", "result": "122.0 ± 16.99", "unit": "%"},
      {"measurement": "Volume of breathing", "setting": "[2]; 1 min, 1 h before induction", "result": "100.5 ± 5.01", "unit": "%"},
      {"measurement": "Expiration/inspiration", "setting": "[2]; 3 min, 1 h before induction", "result": "92.3 ± 2.19", "unit": "%"},
      {"measurement": "Rate of breathing", "setting": "[2]; 3 min, 1 h before induction", "result": "93.7 ± 7.20", "unit": "%"},
      {"measurement": "Volume of breathing", "setting": "[2]; 3 min, 1 h before induction", "result": "86.9 ± 5.99", "unit": "%"},
      {"measurement": "Expiration/inspiration", "setting": "[2]; 6 min, 1 h before induction", "result": "98.7 ± 3.93", "unit": "%"},
      {"measurement": "Rate of breathing", "setting": "[2]; 6 min, 1 h before induction", "result": "93.7 ± 5.80", "unit": "%"},
      {"measurement": "Volume of breathing", "setting": "[2]; 6 min, 1 h before induction", "result": "86.4 ± 6.96", "unit": "%"},
      {"measurement": "Expiration/inspiration", "setting": "[2]; 18 min, 1 h before induction", "result": "97.7 ± 2.62", "unit": "%"},
      {"measurement": "Rate of breathing", "setting": "[2]; 18 min, 1 h before induction", "result": "99.9 ± 4.00", "unit": "%"},
      {"measurement": "Volume of breathing", "setting": "[2]; 18 min, 1 h before induction", "result": "86.3 ± 3.71", "unit": "%"},
      {"measurement": "Expiration/inspiration", "setting": "[2]; 30 min, 1 h before induction", "result": "103.2 ± 1.10", "unit": "%"},
      {"measurement": "Rate of breathing", "setting": "[2]; 30 min, 1 h before induction", "result": "92.5 ± 1.76", "unit": "%"},
      {"measurement": "Volume of breathing", "setting": "[2]; 30 min, 1 h before induction", "result": "86.6 ± 2.44", "unit": "%"},
      {"measurement": "Expiration/inspiration", "setting": "[2]; 60 min, 1 h before induction", "result": "94.3 ± 3.87", "unit": "%"},
      {"measurement": "Rate of breathing", "setting": "[2]; 60 min, 1 h before induction", "result": "97.0 ± 1.81", "unit": "%"},
      {"measurement": "Volume of breathing", "setting": "[2]; 60 min, 1 h before induction", "result": "93.5 ± 6.17", "unit": "%"},
      {"measurement": "Expiration/inspiration", "setting": "[2]; 90 min, 1 h before induction", "result": "96.7 ± 4.58", "unit": "%"},
      {"measurement": "Rate of breathing", "setting": "[2]; 90 min, 1 h before induction", "result": "90.7 ± 6.14", "unit": "%"},
      {"measurement": "Volume of breathing", "setting": "[2]; 90 min, 1 h before induction", "result": "93.5 ± 3.78", "unit": "%"},
      {"measurement": "Expiration/inspiration", "setting": "[2]; 130 min, 1 h before induction", "result": "106.2 ± 5.28", "unit": "%"},
      {"measurement": "Rate of breathing", "setting": "[2]; 130 min, 1 h before induction", "result": "92.9 ± 5.33", "unit": "%"},
      {"measurement": "Volume of breathing", "setting": "[2]; 130 min, 1 h before induction", "result": "87.4 ± 3.03", "unit": "%"},
      {"measurement": "Expiration/inspiration", "setting": "[2]; 180 min, 1 h before induction", "result": "100.1 ± 2.03", "unit": "%"},
      {"measurement": "Rate of breathing", "setting": "[2]; 180 min, 1 h before induction", "result": "97.5 ± 1.82", "unit": "%"},
      {"measurement": "Volume of breathing", "setting": "[2]; 180 min, 1 h before induction", "result": "95.1 ± 3.33", "unit": "%"},
      {"measurement": "Expiration/inspiration", "setting": "[2]; before test", "result": "100.0 ± 0.00", "unit": "%"},
      {"measurement": "Rate of breathing", "setting": "[2]; before test", "result": "100.0 ± 0.00", "unit": "%"},
      {"measurement": "Volume of breathing", "setting": "[2]; before test", "result": "100.0 ± 0.00", "unit": "%"},
      {"measurement": "ileum contraction inhibiting rate", "setting": "SRS-A; 10^-4 g/ml", "result": "100.0 ± 0", "unit": "%"},
      {"measurement": "ileum contraction inhibiting rate", "setting": "SRS-A; 10^-5 g/ml", "result": "67.7 ± 8.11", "unit": "%"},
      {"measurement": "ileum contraction inhibiting rate", "setting": "SRS-A; 10^-6 g/ml", "result": "12.3 ± 8.25", "unit": "%"}
    ]}
  ]
}
